Positions of bridges follow the written chain, without caps; N, C: chain ends. Non-standard residues stand in square brackets, D forms with d. Residues, ends and D or L forms follow the SMILES beside them. ξ: configuration not given here. *: point of attachment. Phe(4-COOH) = N[C@@H](Cc1ccc(C(=O)O)cc1)C(=O)O; Bip = N[C@@H](Cc1ccc(-c2ccccc2)cc1)C(=O)O; Phe(3-OMe) = COc1cccc(C[C@H](N)C(=O)O)c1; Phe(3-Me) = Cc1cccc(C[C@H](N)C(=O)O)c1; d(cisHyp) = O=C(O)[C@H]1C[C@@H](O)CN1; NMeY = CN[C@@H](Cc1ccc(O)cc1)C(=O)O; Val(3-OH) = CC(C)(O)[C@H](N)C(=O)O; NMeF = CN[C@@H](Cc1ccccc1)C(=O)O; 4Pal = N[C@@H](Cc1ccncc1)C(=O)O; Cha = N[C@@H](CC1CCCCC1)C(=O)O; Cit = NC(=O)NCCC[C@H](N)C(=O)O; dPip = O=C(O)[C@H]1CCCCN1; Carboxymethyl = O=C(O)C*; NMeA = CN[C@@H](C)C(=O)O; Orn = NCCC[C@H](N)C(=O)O; Dab = NCC[C@H](N)C(=O)O; Dap = NC[C@H](N)C(=O)O; NBuGly = CCCCNCC(=O)O; ξV = CC(C)C(N)C(=O)O; Sar = CNCC(=O)O
molecular target: T1, human PD-1 (Jurkat-PD-1 cells) / PE-labeled human PD-L1-Ig (Homo sapiens, UniProt Q15116); assay: Jurkat-PD-1 Cell Binding High-Content Screening Assay (CBA); Jurkat hPD1-PDL1 assay; details: Jurkat cell line over-expressing human PD-1; PE-labeled PD-L1-Ig 20 nM final; compound incubated 2 hours at 37° C.; read-out: Jurkat HPD1-PDL1 IC50
T1 construct: expressed in transfected cells; host or cells: Jurkat cell line over-expressing human PD-1
T1 sequence (Q15116 25-288): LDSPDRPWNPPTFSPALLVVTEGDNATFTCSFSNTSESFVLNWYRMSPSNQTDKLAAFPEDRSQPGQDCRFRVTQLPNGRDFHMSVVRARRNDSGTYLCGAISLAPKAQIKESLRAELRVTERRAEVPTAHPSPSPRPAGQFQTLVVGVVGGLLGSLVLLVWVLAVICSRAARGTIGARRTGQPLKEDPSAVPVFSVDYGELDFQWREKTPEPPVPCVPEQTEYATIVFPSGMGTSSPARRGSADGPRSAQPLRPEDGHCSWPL
Description: The ability of the compounds of formula (I) to bind to PD-1 was investigated using a Jurkat-PD-1 Cell Binding High-Content Screening Assay.
Jurkat-PD-1 Cell Binding High-Content Screening Assay (CBA)
Phycoerythrin (PE) was covalently linked to the Ig epitope tag of human PD-L1-Ig and fluorescently-labeled PD-L1-Ig was used for binding studies with a Jurkat cell line over-expressing human PD-1 (Jurkat-PD-1). Briefly, 8×10^3 Jurkat-hPD-1 cells were seeded into 384 well plates in 20 μL of DMEM supplemented with 10% fetal calf serum. 100 nL of compound was added to cells followed by incubation at 37° C. for 2 hours. Then, 5 μL of PE-labeled PD-L1-Ig (20 nM final), diluted in DMEM supplemented with 10% fetal calf serum. […] Data was collected and processed using a Cell Insight NXT High Content Imager and associated software.

SMILES	IC50 [µM]
CC(C)C[C@@H]1NC(=O)[C@H](Cc2c[nH]c3ccccc23)NC(=O)[C@H](CC(=O)O)NC(=O)[C@H](Cc2ccc(O)cc2)NC(=O)[C@H](Cc2ccccc2)NC(=O)CSC[C@@H](C(=O)N[C@@H](C)C(N)=O)NC(=O)[C@H](CO)NC(=O)[C@H](C(C)C)NC(=O)[C@H](CC(C)C)NC(=O)[C@H](CC(N)=O)NC(=O)[C@H]2C[C@@H](O)CN2C(=O)[C@H](C)N(C)C(=O)[C@H](C(C)C)NC(=O)[C@H](Cc2ccc(-c3ccccc3)cc2)NC1=O [Example 1126] ({CH2CO}-FYDWL[Bip]V[NMeA][d(cisHyp)]NLVSCA-NH2; thioether N-14)	0.48
CC(C)C[C@@H]1NC(=O)[C@H](Cc2c[nH]c3ccccc23)NC(=O)[C@H](CC(=O)O)NC(=O)[C@H](Cc2ccc(OCC(=O)O)cc2)NC(=O)[C@H]([C@@H](C)O)NC(=O)CSC[C@@H](C(=O)N[C@@H](CCN)C(N)=O)NC(=O)[C@H](CO)NC(=O)[C@H](C(C)(C)O)NC(=O)[C@H](CC2CCCCC2)NC(=O)[C@H](CCN)NC(=O)[C@H]2CCCCN2C(=O)[C@H]2CCCN2C(=O)[C@H](C(C)C)NC(=O)[C@H](Cc2ccc(-c3ccccc3)cc2)NC1=O [Example 1188] ({CH2CO}-TY(Carboxymethyl)DWL[Bip]V[dP][dPip][Dab][Cha][Val(3-OH)]SC[Dab]-NH2; thioether N-14)	0.05
CCCCN1CC(=O)N[C@@H](CCN)C(=O)N[C@@H](CC2CCCCC2)C(=O)N[C@@H](C(C)C)C(=O)N[C@@H](CO)C(=O)N[C@H](C(=O)N[C@@H](CCN)C(N)=O)CSCC(=O)N[C@@H]([C@@H](C)O)C(=O)N[C@@H](Cc2ccc(OCC(=O)O)cc2)C(=O)N[C@@H](CC(=O)O)C(=O)N[C@@H](Cc2cccc(C)c2)C(=O)N[C@@H](Cc2ccc(OCC(=O)O)cc2)C(=O)N[C@@H](Cc2ccc(-c3ccccc3)cc2)C(=O)N[C@@H](Cc2ccc(OCC(=O)O)cc2)C(=O)N(C)[C@@H](C)C1=O [Example 1186] ({CH2CO}-TY(Carboxymethyl)D[Phe(3-Me)]Y(Carboxymethyl)[Bip]Y(Carboxymethyl)[NMeA][NBuGly][Dab][Cha]VSC[Dab]-NH2; thioether N-14)	0.38
CC(C)C1NC(=O)[C@H](Cc2c[nH]c3ccccc23)NC(=O)[C@H](CC(=O)O)NC(=O)[C@H](Cc2ccc(C(=O)O)cc2)NC(=O)[C@H](Cc2ccncc2)NC(=O)CSC[C@@H](C(=O)N[C@@H](C)C(N)=O)NC(=O)[C@H]([C@@H](C)O)NC(=O)[C@H](C(C)C)NC(=O)[C@H](CC2CCCCC2)NC(=O)[C@H](CCN)NC(=O)[C@H](Cc2ccc(O)cc2)N(C)C(=O)[C@H](CCCN)NC(=O)[C@H](CCC(=O)O)NC(=O)[C@H](Cc2ccc(-c3ccccc3)cc2)NC1=O (stereo partly drawn) [Example 1450] ({CH2CO}-[4Pal][Phe(4-COOH)]DW[ξV][Bip]E[Orn][NMeY][Dab][Cha]VTCA-NH2; thioether N-14)	0.21
CC(C)C[C@@H]1NC(=O)[C@H](Cc2c[nH]c3ccccc23)NC(=O)[C@H](CC(=O)O)NC(=O)[C@H](Cc2ccc(O)cc2)NC(=O)[C@H](Cc2ccccc2)NC(=O)CSC[C@@H](C(=O)N[C@@H](C)C(N)=O)NC(=O)[C@H](CO)NC(=O)[C@H](C(C)C)NC(=O)[C@H](CC(C)C)NC(=O)[C@H](CC(N)=O)NC(=O)CN(C)C(=O)[C@H](C)N(C)C(=O)[C@H](CCC(=O)O)NC(=O)[C@H](Cc2ccc(-c3ccccc3)cc2)NC1=O [Example 1119] ({CH2CO}-FYDWL[Bip]E[NMeA][Sar]NLVSCA-NH2; thioether N-14)	0.42
CC(C)C[C@@H]1NC(=O)[C@H](Cc2c[nH]c3ccccc23)NC(=O)[C@H](CC(=O)O)NC(=O)[C@H](Cc2ccc(O)cc2)NC(=O)[C@H](Cc2ccccc2)NC(=O)CSC[C@@H](C(=O)N[C@@H](CO)C(N)=O)NC(=O)[C@H](CO)NC(=O)[C@H](C(C)C)NC(=O)[C@H](CC(C)C)NC(=O)[C@H](CC(N)=O)NC(=O)CN(C)C(=O)[C@H](C)N(C)C(=O)[C@H](C(C)C)NC(=O)[C@H](Cc2ccc(-c3ccccc3)cc2)NC1=O [Example 1173] ({CH2CO}-FYDWL[Bip]V[NMeA][Sar]NLVSCS-NH2; thioether N-14)	0.95
CC(C)C[C@@H]1NC(=O)[C@H](Cc2c[nH]c3ccccc23)NC(=O)[C@H](CC(=O)O)NC(=O)[C@H](Cc2ccc(O)cc2)NC(=O)[C@H](Cc2ccccc2)NC(=O)CSC[C@@H](C(=O)N[C@@H](C)C(N)=O)NC(=O)[C@H](CO)NC(=O)[C@H](C(C)C)NC(=O)[C@H](CC(C)C)NC(=O)[C@H](CCN)NC(=O)[C@H]2CCCN2C(=O)[C@H](CCCN)NC(=O)[C@H](C(C)C)NC(=O)[C@H](Cc2ccc(-c3ccccc3)cc2)NC1=O [Example 1421] ({CH2CO}-FYDWL[Bip]V[Orn][dP][Dab]LVSCA-NH2; thioether N-14)	0.06
CC(C)C[C@@H]1NC(=O)[C@H](Cc2c[nH]c3ccccc23)NC(=O)[C@H](CC(=O)O)NC(=O)[C@H](Cc2ccc(OCC(=O)O)cc2)NC(=O)[C@H](Cc2ccccc2)NC(=O)CSC[C@@H](C(=O)NCC(N)=O)NC(=O)[C@H](CO)NC(=O)[C@H](C(C)C)NC(=O)[C@H](CC(C)C)NC(=O)[C@H](CC(N)=O)NC(=O)CN(C)C(=O)[C@H](C)N(C)C(=O)[C@H](C(C)C)NC(=O)[C@H](Cc2ccc(-c3ccccc3)cc2)NC1=O [Example 1030] ({CH2CO}-FY(Carboxymethyl)DWL[Bip]V[NMeA][Sar]NLVSCG-NH2; thioether N-14)	0.06
CC(C)C[C@@H]1NC(=O)[C@H](Cc2c[nH]c3ccccc23)NC(=O)[C@H](CC(=O)O)NC(=O)[C@H](Cc2ccc(O)cc2)NC(=O)[C@H](Cc2ccccc2)NC(=O)CSC[C@@H](C(=O)NCC(N)=O)NC(=O)[C@H](CO)NC(=O)[C@H](C(C)C)NC(=O)[C@H](CC(C)C)NC(=O)[C@H](CC(N)=O)NC(=O)[C@H]2CCCN2C(=O)[C@H](C)N(C)C(=O)[C@H](C(C)C)NC(=O)[C@H](Cc2ccc(-c3ccccc3)cc2)NC1=O [Example 1035] ({CH2CO}-FYDWL[Bip]V[NMeA][dP]NLVSCG-NH2; thioether N-14)	0.06
CC(C)C[C@@H]1NC(=O)[C@H](Cc2c[nH]c3ccccc23)NC(=O)[C@H](CC(=O)O)NC(=O)[C@H](Cc2ccccc2)NC(=O)[C@H](Cc2ccccc2)NC(=O)CSC[C@@H](C(=O)N[C@@H](C)C(N)=O)NC(=O)[C@H](CO)NC(=O)[C@H](C(C)C)NC(=O)[C@H](CC(C)C)NC(=O)[C@H](CC(N)=O)NC(=O)CN(C)C(=O)[C@H](C)N(C)C(=O)[C@H](C(C)C)NC(=O)[C@H](Cc2ccc(-c3ccccc3)cc2)NC1=O [Example 1165] ({CH2CO}-FFDWL[Bip]V[NMeA][Sar]NLVSCA-NH2; thioether N-14)	0.9
Cc1cccc(C[C@@H]2NC(=O)[C@H](CC(=O)O)NC(=O)[C@H](Cc3ccncc3)NC(=O)[C@H](CN)NC(=O)CSC[C@@H](C(=O)N[C@@H](C)C(N)=O)NC(=O)[C@H]([C@@H](C)O)NC(=O)[C@H](C(C)C)NC(=O)[C@H](CC3CCCCC3)NC(=O)[C@H](CCN)NC(=O)[C@H](Cc3ccccc3)N(C)C(=O)[C@H](CCCN)NC(=O)[C@H](CCC(=O)O)NC(=O)[C@H](Cc3ccc(-c4ccccc4)cc3)NC(=O)C(C(C)C)NC2=O)c1 (stereo partly drawn) [Example 1445] ({CH2CO}-[Dap][4Pal]D[Phe(3-Me)][ξV][Bip]E[Orn][NMeF][Dab][Cha]VTCA-NH2; thioether N-14)	0.01
CC(C)C[C@@H]1NC(=O)[C@H](CCCNC(=N)N)NC(=O)[C@H](Cc2ccccc2)N(C)C(=O)[C@H](C)N(C)C(=O)[C@H](CCCN)NC(=O)[C@H](Cc2ccc(-c3ccccc3)cc2)NC(=O)[C@H](C(C)C)NC(=O)[C@H](Cc2c[nH]c3ccccc23)NC(=O)[C@H](CC(=O)O)NC(=O)[C@H](Cc2ccc(O)cc2)NC(=O)[C@H](CCC(N)=O)NC(=O)CSC[C@@H](C(=O)NCC(N)=O)NC(=O)[C@H](CO)NC(=O)[C@H](C(C)C)NC1=O [Example 1294] ({CH2CO}-QYDWV[Bip][Orn][NMeA][NMeF]RLVSCG-NH2; thioether N-14)	0.14
Cc1cccc(C[C@@H]2NC(=O)[C@H](Cc3ccccc3)NC(=O)CSC[C@@H](C(=O)N[C@@H](C)C(N)=O)NC(=O)[C@H](CO)NC(=O)[C@H](C(C)C)NC(=O)[C@H](CC(C)C)NC(=O)[C@H](CC(N)=O)NC(=O)[C@H]3CCCN3C(=O)[C@H](C)N(C)C(=O)[C@H](C(C)C)NC(=O)[C@H](Cc3ccc(-c4ccccc4)cc3)NC(=O)[C@H](CC(C)C)NC(=O)[C@H](Cc3c[nH]c4ccccc34)NC(=O)[C@H](CC(=O)O)NC2=O)c1 [Example 1033] ({CH2CO}-F[Phe(3-Me)]DWL[Bip]V[NMeA][dP]NLVSCA-NH2; thioether N-14)	0.06
CC[C@H](C)[C@@H]1NC(=O)[C@H](Cc2c[nH]c3ccccc23)NC(=O)[C@H](CC(=O)O)NC(=O)[C@H](Cc2ccc(O)cc2)NC(=O)[C@H](Cc2ccccc2)NC(=O)CSC[C@@H](C(=O)NCC(N)=O)NC(=O)[C@H](CO)NC(=O)[C@H](C(C)C)NC(=O)[C@H](CC(C)C)NC(=O)[C@H](CCCNC(=N)N)NC(=O)[C@H](Cc2ccccc2)N(C)C(=O)[C@H](C)N(C)C(=O)[C@H](CCCNC(=N)N)NC(=O)[C@H](Cc2ccc(-c3ccccc3)cc2)NC1=O [Example 1284] ({CH2CO}-FYDWI[Bip]R[NMeA][NMeF]RLVSCG-NH2; thioether N-14)	0.82
COc1cccc(C[C@@H]2NC(=O)[C@H](CC(=O)O)NC(=O)[C@H](Cc3ccc(O)cc3)NC(=O)[C@H](CC(N)=O)NC(=O)CSC[C@@H](C(=O)N[C@@H](C)C(N)=O)NC(=O)[C@H]([C@@H](C)O)NC(=O)[C@H](C(C)C)NC(=O)[C@H](CC(C)C)NC(=O)[C@H](CCN)NC(=O)[C@H](Cc3ccccc3)N(C)C(=O)[C@H](C)N(C)C(=O)[C@H](CCCNC(N)=O)NC(=O)[C@H](Cc3ccc(-c4ccccc4)cc3)NC(=O)[C@H](C(C)C)NC2=O)c1 [Example 1375] ({CH2CO}-NYD[Phe(3-OMe)]V[Bip][Cit][NMeA][NMeF][Dab]LVTCA-NH2; thioether N-14)	0.08
